{"source": "patent US20170198337A1", "about": "“HIGH THROUGHPUT TELOMERIC CIRCLE ASSAY” (SENS FOUNDATION, INC., priority 2014, published 2017)", "key": {"[1]": {"tested_on": "ALT-positive cell lines", "assay": "CC EATR assay, C-circle content of cells treated with hydroxyurea, 96-well plates", "type": "cell-based, human", "conditions": "high-throughput format, FIG. 14", "method": "FIG. 14 depicts the detection of experimentally modulated ALT levels using the CC EATR assay. Treatment of cells with hydroxyurea (HU) decreases ALT levels. […] This experiment was performed in a high-throughput format in a 96-well plates.\nFor the fluorescence-based detection of RCA-mediated, CC-derived products (FIGS. 3 and 4, illustrating exonuclease digestion from the 5′ or 3′ terminus, respectively), 20 μL of each sample post-RCA (a single reaction per sample) was combined with 20 μL of 0.1 mg/ml BSA, 3 mM DTT, 0.05% Tween, 10 mM Bis-Tris-Propane-HCl, 10 mM MgCl2 (final pH 7.0 at 25 degrees C.), 2.5 U of Exonuclease III or 10 U of T7 Exonuclease (NEB), and 100 nM of (CCCTAA)2 probe labeled at the 5′ end with a 6-Carboxyfluorescein (FAM) fluorophore and a ZEN internal quencher (Integrated DNA Technologies) at the first T position. […] Fluorescence signals were collected using Applied Biosystems StepOnePlus Real-Time PCR system configured to acquire data from FAM/FITC filter sets and the reaction was run at 37° C. for 1 hour with signal being collected at 0 min and then every 15 min thereafter. […]\nOn day 0, passage 50 U2OS cells were seeded into a 10 cm plate, a 6 well plate, a 24 well plate and a 96 well plate at quantities of 5×10^5, 3×10^5, 1×10^4 and 1×10^4 per well respectively. […]"}, "[2]": {"tested_on": "ALT-positive cells", "conditions": "reported in the literature; cited from earlier work"}}, "data": [{"smiles": "NC(=O)NO", "note": "[hydroxyurea]", "values": [{"measurement": "C-circle content of ALT-positive cell lines after HU treatment", "setting": "[1]", "value": "significant decreases"}, {"measurement": "ALT activity of ALT-positive cells upon treatment", "setting": "[2]", "value": "decreased ALT activity"}]}]}
